Earlier results on three compounds are cited in patent US20160347856A1, “Use of Anti-MUC1 Maytansinoid Immunoconjugate Antibody for the Treatment of Solid Tumors” (SANOFI, priority 2013, published 2016).

For data set [1] the following is noted: poor therapeutic effects because of high systemic toxicity; Foster et al. (1996), Wolff et al. (1996).
The conditions of data set [2]: Bhuyan et al. (1982).
A further data set deals with mice. Conditions: single intravenous dose of 12.5 μg/kg; Reynolds et al. (1986).

For `Cc1c[nH]c2c1[C@@]13C[C@@H]1CN(C(=O)c1cc4cc(NC(=O)c5cc6ccccc6o5)ccc4[nH]1)C3=CC2=O` [Adozelesin], the Clinical evaluation entry in data set [1] is on record as “disappointing results”.

As to `COc1c(O)c2c(c3cc(C(=O)N4CCc5c4c(O)c(OC)c4[nH]c(C(=O)N6CC7CC78C6=CC(=O)c6[nH]cc(C)c68)cc54)[nH]c13)CCN2C(N)=O` (stereo not shown) [CC-1065], the “Potency in vitro relative to doxorubicin, methotrexate and vincristine” value in data set [2] is “about 1000 fold”. Further, the “Toxicity after administration to mice” value in the data set with mice is recorded as “delayed hepatotoxicity leading to mortality on day 50”.

Regarding `CCN(CC)c1ccc2cc(C(=O)Nc3ccc4[nH]c(C(=O)N5C[C@@H](CCl)c6c5cc(OC(=O)Nc5ccccc5)c5[nH]cc(C)c65)cc4c3)oc2c1` [Carzelesin], in data set [1], the Clinical evaluation entry is listed as “disappointing results”.
